Data published in ChEMBL document CHEMBL4627246, “Pyroglutamide-Based P2X7 Receptor Antagonists Targeting Inflammatory Bowel Disease” (J Med Chem, 2020).

Legend:
Type in all cases: cell-based
[1] = system: HOP-62; assay: Cytotoxicity against human HOP62 cells assessed as effect on cell growth at 10 uM incubated for 48 hrs by sulforhodamine B assay; conditions: hop-62, 48 h
[2] = system: T47D; assay: Cytotoxicity against human T47D cells assessed as effect on cell growth at 10 uM incubated for 48 hrs by sulforhodamine B assay
[3] = system: A498; assay: Cytotoxicity against human A498 cells assessed as effect on cell growth at 10 uM incubated for 48 hrs by sulforhodamine B assay; conditions: a498, 48 h
[4] = system: NCI/ADR-RES; assay: Cytotoxicity against human NCI/ADR-RES cells assessed as effect on cell growth at 10 uM incubated for 48 hrs by sulforhodamine B assay
[5] = system: COLO 205; assay: Cytotoxicity against human COLO205 cells assessed as effect on cell growth at 10 uM incubated for 48 hrs by sulforhodamine B assay; conditions: colo 205, 48 h
[6] = system: SF-295; assay: Cytotoxicity against human SF295 cells assessed as effect on cell growth at 10 uM incubated for 48 hrs by sulforhodamine B assay; conditions: sf-295, 48 h
[7] = system: CCRF-CEM; assay: Cytotoxicity against human CCRF-CEM cells assessed as effect on cell growth at 10 uM incubated for 48 hrs by sulforhodamine B assay
[8] = system: OVCAR-4; assay: Cytotoxicity against human OVCAR4 cells assessed as effect on cell growth at 10 uM incubated for 48 hrs by sulforhodamine B assay; conditions: ovcar-4, 48 h
[9] = system: Malme-3M; assay: Cytotoxicity against human MALME-3M cells assessed as effect on cell growth at 10 uM incubated for 48 hrs by sulforhodamine B assay
[10] = system: SK-MEL-28; assay: Cytotoxicity against human SK-MEL-28 cells assessed as effect on cell growth at 10 uM incubated for 48 hrs by sulforhodamine B assay; conditions: sk-mel-28, 48 h
[11] = system: M14; assay: Cytotoxicity against human M14 cells assessed as effect on cell growth at 10 uM incubated for 48 hrs by sulforhodamine B assay; conditions: m14, 48 h
[12] = system: SF-539; assay: Cytotoxicity against human SF539 cells assessed as effect on cell growth at 10 uM incubated for 48 hrs by sulforhodamine B assay; conditions: sf-539, 48 h
[13] = system: RXF 393; assay: Cytotoxicity against human RXF393 cells assessed as effect on cell growth at 10 uM incubated for 48 hrs by sulforhodamine B assay; conditions: rxf 393, 48 h
[14] = system: OVCAR-3; assay: Cytotoxicity against human OVCAR3 cells assessed as effect on cell growth at 10 uM incubated for 48 hrs by sulforhodamine B assay; conditions: ovcar-3, 48 h
[15] = system: MDA-MB-231; assay: Cytotoxicity against human MDA-MB-231 cells assessed as effect on cell growth at 10 uM incubated for 48 hrs by sulforhodamine B assay; conditions: mda-mb-231, 48 h
[16] = system: A549; assay: Cytotoxicity against human A549/ATCC cells assessed as effect on cell growth at 10 uM incubated for 48 hrs by sulforhodamine B assay; conditions: a549, 48 h
[17] = system: SK-MEL-2; assay: Cytotoxicity against human SK-MEL-2 cells assessed as effect on cell growth at 10 uM incubated for 48 hrs by sulforhodamine B assay; conditions: sk-mel-2, 48 h
[18] = system: OVCAR-8; assay: Cytotoxicity against human OVCAR8 cells assessed as effect on cell growth at 10 uM incubated for 48 hrs by sulforhodamine B assay; conditions: ovcar-8, 48 h
[19] = system: K562; assay: Cytotoxicity against human K562 cells assessed as effect on cell growth at 10 uM incubated for 48 hrs by sulforhodamine B assay; conditions: k562, 48 h
[20] = system: HCC 2998; assay: Cytotoxicity against human HCC2998 cells assessed as effect on cell growth at 10 uM incubated for 48 hrs by sulforhodamine B assay; conditions: hcc 2998, 48 h

Measured: Activity

COc1ccc(CN2C(=O)CC[C@H]2C(=O)NCCc2ccccc2)cc1
Non-Toxic: all assays above

CN(Cc1ccccc1)C(=O)[C@@H]1CCC(=O)N1Cc1ccc(Cl)cc1Cl
Non-Toxic: all assays above

CN1C(=O)C(C)(C)C[C@H]1C(=O)NCc1cccc(C(F)(F)F)c1Cl
Non-Toxic: all assays above

O=C(NCc1ccccc1Cl)[C@@H]1CCC(=O)N1Cc1ccc(Cl)cc1
Non-Toxic: all assays above

O=C(NCCc1ccc(Cl)cc1Cl)[C@@H]1CCC(=O)N1c1ccccc1
Non-Toxic: all assays above

O=C(NCCc1ccccc1)[C@@H]1CCC(=O)N1Cc1ccc(Br)cc1
Non-Toxic: all assays above

CN1CCN(/C=C2\C[C@@H](C(=O)NCc3ccc(Cl)cc3Cl)N(c3cccs3)C2=O)CC1
Non-Toxic: all assays above

O=C(NCc1ccc(Cl)cc1Cl)[C@@H]1CCC(=O)N1Cc1ccccc1
Non-Toxic: all assays above

CN(C)/C=C1\C[C@H]2C(=O)N(Cc3ccc(Cl)cc3Cl)C(N(C)C)N2C1=O (stereo not given in full)
Non-Toxic: all assays above

O=C(NCc1ccccc1Cl)[C@@H]1CCC(=O)N1Cc1ccccc1
Non-Toxic: all assays above

O=C(Nc1ccc(Cl)cc1Cl)[C@@H]1CCC(=O)N1Cc1ccccc1Cl
Non-Toxic: all assays above

COc1ccc(N2C(=O)CC[C@H]2C(=O)NCc2ccc(Cl)cc2Cl)cc1
Non-Toxic: all assays above
